# Measured values: ChEMBL document CHEMBL1127071, “Structure-activity relationships of C-terminal endothelin hexapeptide antagonists” (J Med Chem, 1993)
# Several values for one entry are separate records, joined by “and”; a condition that tells them apart may be missing. Identical values can stand only once. Where a SMILES comes first, the peptide text is derived from it. [ ]: non-standard residue; d: D form. d2Nal = N[C@H](Cc1ccc2ccccc2c1)C(=O)O; Orn = NCCC[C@H](N)C(=O)O
# Legend:
# [1] = biological target: T1, Endothelin receptor type B (Rattus norvegicus, UniProt P21451); assay: Effective concentration against Endothelin B receptor from rat cerebellum; assay type: tissue-based
# T1 sequence (P21451 whole entry): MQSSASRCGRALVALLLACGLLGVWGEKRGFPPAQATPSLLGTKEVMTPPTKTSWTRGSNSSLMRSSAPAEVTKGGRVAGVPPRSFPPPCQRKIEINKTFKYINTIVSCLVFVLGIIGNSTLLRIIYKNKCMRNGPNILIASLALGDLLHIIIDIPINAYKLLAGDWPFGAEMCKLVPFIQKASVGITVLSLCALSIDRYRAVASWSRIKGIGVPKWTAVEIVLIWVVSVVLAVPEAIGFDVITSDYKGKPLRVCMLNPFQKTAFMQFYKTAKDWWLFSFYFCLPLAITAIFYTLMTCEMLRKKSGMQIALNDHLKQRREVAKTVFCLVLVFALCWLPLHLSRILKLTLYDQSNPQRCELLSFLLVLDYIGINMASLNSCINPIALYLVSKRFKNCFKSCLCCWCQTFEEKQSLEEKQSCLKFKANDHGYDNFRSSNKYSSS
# Endothelin receptor = biological target: T2, Endothelin receptor (Rattus norvegicus, UniProt P26684+P21451); assay: Binding affinity against Endothelin receptor from rat heart ventricle; assay type: protein assay
# T2 sequence (P26684 whole entry): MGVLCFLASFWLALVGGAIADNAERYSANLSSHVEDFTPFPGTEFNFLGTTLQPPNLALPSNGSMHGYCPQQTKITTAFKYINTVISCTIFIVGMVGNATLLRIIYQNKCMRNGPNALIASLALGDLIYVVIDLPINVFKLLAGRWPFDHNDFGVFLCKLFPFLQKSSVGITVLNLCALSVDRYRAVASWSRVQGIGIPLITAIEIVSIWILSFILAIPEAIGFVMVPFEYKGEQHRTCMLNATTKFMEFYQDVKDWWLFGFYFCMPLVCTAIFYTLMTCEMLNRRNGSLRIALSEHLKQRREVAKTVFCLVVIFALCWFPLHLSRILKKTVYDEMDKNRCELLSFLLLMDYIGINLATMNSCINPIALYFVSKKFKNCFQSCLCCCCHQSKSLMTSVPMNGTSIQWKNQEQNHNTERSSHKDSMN
# T2 sequence (P21451 whole entry): T1 sequence (P21451 whole entry)
# Oryctolagus cuniculus = species on record: Oryctolagus cuniculus; assay: Inhibition of ET-1 stimulated arachidonic acid release in rabbit renal artery vascular smooth muscle cells; assay type: functional
Compound,IC50 [1] [nM],IC50 (Endothelin receptor),IC50 (Oryctolagus cuniculus) [nM]
CC[C@H](C)[C@H](NC(=O)[C@@H](NC(=O)[C@@H](Cc1ccccc1)NC(C)=O)[C@@H](C)CC)C(=O)N[C@@H](Cc1c[nH]c2ccccc12)C(=O)O (Ac-[dF]IIW-OH),> 10000,,
CC[C@H](C)[C@H](NC(=O)[C@H](CC(=O)O)NC(=O)[C@H](Cc1ccccc1)NC(=O)[C@@H](Cc1ccccc1)NC(C)=O)C(=O)N[C@H](C(=O)N[C@@H](Cc1c[nH]c2ccccc12)C(=O)O)[C@@H](C)CC (stereo in doubt; 20),60,330 nM,
CC[C@H](C)[C@H](NC(=O)[C@H](CC(=O)O)NC(=O)[C@H](CC(C)C)NC(=O)[C@@H](Cc1ccccc1)NC(C)=O)C(=O)N[C@@H](CCCCN)C(=O)N[C@@H](Cc1c[nH]c2ccccc12)C(=O)O,,> 50000 nM,
CC[C@H](C)[C@H](NC(=O)[C@H](CC(=O)O)NC(=O)[C@H](CC(C)C)NC(=O)[C@H](Cc1c[nH]cn1)NC(C)=O)C(=O)N[C@H](C(=O)N[C@H](Cc1c[nH]c2ccccc12)C(=O)O)[C@@H](C)CC,,> 50000 nM,
CC[C@H](C)[C@H](NC(=O)[C@H](CC(=O)O)NC(=O)[C@H](CC(C)C)NC(=O)[C@@H](Cc1ccccc1)NC(C)=O)C(=O)N[C@H](C(=O)N[C@@H](Cc1ccc(O)cc1)C(=O)O)[C@@H](C)CC (Ac-[dF]LDIIY-OH),150,,
CC[C@H](C)[C@H](NC(=O)[C@H](Cc1ccccc1)NC(=O)[C@H](CC(=O)O)NC(=O)[C@@H](Cc1ccccc1)NC(C)=O)C(=O)N[C@@H](Cc1c[nH]c2ccccc12)C(=O)O (Ac-[dF]DFIW-OH),4600,,
CC[C@H](C)[C@H](NC(=O)[C@H](CC(=O)O)NC(=O)[C@H](CC(C)C)NC(=O)[C@@H](N)Cc1ccccc1)C(=O)N[C@H](C(=O)N[C@@H](Cc1c[nH]c2ccccc12)C(=O)O)[C@@H](C)CC,2600,,
CC[C@H](C)[C@H](NC(=O)[C@H](Cc1ccccc1)NC(=O)[C@H](CC(C)C)NC(=O)[C@@H](Cc1ccccc1)NC(C)=O)C(=O)N[C@H](C(=O)N[C@@H](Cc1c[nH]c2ccccc12)C(=O)O)[C@@H](C)CC (Ac-[dF]LFIIW-OH),36,380 nM,
CC[C@H](C)[C@H](NC(=O)[C@H](C)NC(=O)[C@H](CC(=O)O)NC(=O)[C@H](CC(C)C)NC(=O)[C@@H](Cc1ccccc1)NC(C)=O)C(=O)N[C@@H](Cc1c[nH]c2ccccc12)C(=O)O (Ac-[dF]LDAIW-OH),450,1610 nM,1500
CC[C@H](C)[C@H](NC(=O)[C@H](CC(=O)O)NC(=O)[C@H](CC(C)C)NC(=O)[C@@H](Cc1c[nH]cn1)NC(C)=O)C(=O)N[C@H](C(=O)N[C@@H](Cc1c[nH]c2ccccc12)C(=O)O)[C@@H](C)CC,9100,4100 nM and 4500 nM,
CC[C@H](C)[C@H](NC(=O)[C@H](CC(=O)O)NC(=O)[C@@H](CC(C)C)NC(=O)[C@H](Cc1c[nH]cn1)NC(C)=O)C(=O)N[C@H](C(=O)N[C@@H](Cc1c[nH]c2ccccc12)C(=O)O)[C@@H](C)CC,,39000 nM,
CC[C@H](C)[C@H](NC(=O)[C@H](CC(=O)O)NC(=O)[C@H](CCC(=O)O)NC(=O)[C@@H](Cc1ccccc1)NC(C)=O)C(=O)N[C@@H](Cc1c[nH]c2ccccc12)C(=O)O,840,740 nM,600
CC[C@H](C)[C@H](NC(=O)[C@H](CC(=O)O)NC(=O)[C@H](CC(C)C)NC(=O)[C@@H](Cc1ccccc1)NC(C)=O)C(=O)N[C@@H](Cc1c[nH]c2ccccc12)C(=O)O (Ac-[dF]LDIW-OH),> 10000,24500 nM,
CC[C@H](C)[C@H](NC(=O)[C@@H](Cc1ccccc1)NC(C)=O)C(=O)N[C@@H](Cc1c[nH]c2ccccc12)C(=O)O (Ac-[dF]-Ile-Trp-OH),> 10000,,
CC[C@H](C)[C@H](NC(=O)[C@H](Cc1ccc(O)cc1)NC(=O)[C@@H](Cc1ccccc1)NC(C)=O)C(=O)N[C@H](C(=O)N[C@@H](Cc1c[nH]c2ccccc12)C(=O)O)[C@@H](C)CC,> 10000,,
CC[C@H](C)[C@H](NC(=O)[C@H](CC(=O)O)NC(=O)[C@@H](Cc1ccccc1)NC(C)=O)C(=O)N[C@H](C(=O)N[C@@H](Cc1c[nH]c2ccccc12)C(=O)O)[C@@H](C)CC (Ac-[dF]DIIW-OH),,2150 nM,

Compound,IC50 [1] [nM],IC50 (Endothelin receptor),IC50 (Oryctolagus cuniculus) [nM]
CC[C@H](C)[C@H](NC(=O)[C@H](CC(=O)O)NC(=O)[C@H](CC(C)C)NC(=O)[C@@H](Cc1ccccc1)NC(C)=O)C(=O)N[C@@H](C)C(=O)N[C@@H](Cc1c[nH]c2ccccc12)C(=O)O (Ac-[dF]LDIAW-OH),> 10000,6830 nM,> 10000
Ac-FLDIIW-OH,18500,,
CC[C@H](C)[C@H](NC(=O)[C@H](CC(=O)O)NC(=O)[C@H](CCCN)NC(=O)[C@@H](Cc1ccccc1)NC(C)=O)C(=O)N[C@H](C(=O)N[C@@H](Cc1c[nH]c2ccccc12)C(=O)O)[C@@H](C)CC (Ac-[dF][Orn]DIIW-OH),2450,680 nM,
CC[C@H](C)[C@H](NC(=O)[C@H](CC(=O)O)NC(=O)[C@H](CC(C)C)NC(=O)[C@H](N)Cc1ccccc1)C(=O)N[C@H](C(=O)N[C@@H](Cc1c[nH]c2ccccc12)C(=O)O)[C@@H](C)CC,2600,12400 nM,
CC[C@H](C)[C@H](NC(=O)[C@H](CCC(=O)O)NC(=O)[C@H](CC(=O)O)NC(=O)[C@H](CC(C)C)NC(=O)[C@@H](Cc1ccccc1)NC(C)=O)C(=O)N[C@@H](Cc1c[nH]c2ccccc12)C(=O)O,> 10000,9000 nM,> 10000
CC[C@H](C)[C@H](NC(=O)[C@H](CC(=O)O)NC(=O)[C@H](CC(C)C)NC(=O)[C@@H](Cc1ccc2ccccc2c1)NC(C)=O)C(=O)N[C@H](C(=O)N[C@@H](Cc1c[nH]c2ccccc12)C(=O)O)[C@@H](C)CC (Ac-[d2Nal]LDIIW-OH),,,1900
CC[C@H](C)[C@H](NC(=O)[C@H](CC(=O)O)NC(=O)[C@H](CC(C)C)NC(=O)[C@@H](Cc1ccccc1)NC(C)=O)C(=O)N[C@H](C(=O)NC(Cc1cnc[nH]1)C(=O)O)[C@@H](C)CC (mixture of isomers),> 10000,,
CC[C@H](C)[C@H](NC(=O)[C@H](CC(=O)O)NC(=O)[C@H](Cc1ccccc1)NC(=O)[C@@H](Cc1ccccc1)NC(C)=O)C(=O)N[C@H](C(=O)N[C@@H](Cc1c[nH]c2ccccc12)C(=O)O)[C@@H](C)CC (stereo in doubt; 21),20,,2200
CC[C@H](C)[C@H](NC(=O)[C@H](CC(=O)O)NC(=O)[C@H](CC(C)C)NC(=O)[C@@H](Cc1ccccc1)NC(C)=O)C(=O)N[C@H](C(=O)N[C@@H](Cc1c[nH]c2ccccc12)C(=O)O)[C@@H](C)CC (Ac-[dF]LDIIW-OH),2000,740 nM,
CC[C@H](C)[C@H](NC(=O)[C@H](CCCCN)NC(=O)[C@H](CC(C)C)NC(=O)[C@@H](Cc1ccccc1)NC(C)=O)C(=O)N[C@H](C(=O)N[C@@H](Cc1c[nH]c2ccccc12)C(=O)O)[C@@H](C)CC,> 10000,12000 nM,
CC[C@H](C)[C@H](NC(=O)[C@H](CCCCN)NC(=O)[C@H](CC(=O)O)NC(=O)[C@H](CC(C)C)NC(=O)[C@@H](Cc1ccccc1)NC(C)=O)C(=O)N[C@@H](Cc1c[nH]c2ccccc12)C(=O)O,> 10000,> 50000 nM,
CC[C@H](C)[C@H](NC(=O)[C@H](CC(=O)O)NC(=O)[C@H](CC(C)C)NC(=O)[C@@H](Cc1ccc(O)cc1)NC(C)=O)C(=O)N[C@H](C(=O)N[C@@H](Cc1c[nH]c2ccccc12)C(=O)O)[C@@H](C)CC (Ac-[dY]LDIIW-OH),7000,,250
CC[C@H](C)[C@H](NC(=O)[C@H](CC(=O)O)NC(=O)[C@H](CC(C)C)NC(=O)[C@@H](Cc1ccccc1)NC(C)=O)C(=O)N[C@@H](CCC(=O)O)C(=O)N[C@@H](Cc1c[nH]c2ccccc12)C(=O)O,,5200 nM,
CC[C@@H](C)[C@@H](NC(=O)[C@H](CC(=O)O)NC(=O)[C@H](CC(C)C)NC(=O)[C@H](Cc1c[nH]cn1)NC(C)=O)C(=O)N[C@H](C(=O)N[C@@H](Cc1c[nH]c2ccccc12)C(=O)O)[C@@H](C)CC,,169000 nM,
CC[C@H](C)[C@H](NC(=O)[C@H](CC(=O)O)NC(=O)[C@H](C)NC(=O)[C@@H](Cc1ccccc1)NC(C)=O)C(=O)N[C@H](C(=O)N[C@@H](Cc1c[nH]c2ccccc12)C(=O)O)[C@@H](C)CC (Ac-[dF]ADIIW-OH),290,420 nM,330
CC[C@H](C)[C@H](NC(=O)[C@H](CC(=O)O)NC(=O)[C@H](CC(C)C)NC(=O)[C@@H](Cc1ccccc1)NC(C)=O)C(=O)N[C@H](C(=O)N[C@@H](Cc1csc2ccccc12)C(=O)O)[C@@H](C)CC,9800,3800 nM,> 10000
